Results from US8796415B2, “Inhibitors of guanine exchange factors and their use as anticancer drugs” (Centre National de la Recherche Scientifique, priority 2009, dated 2014).
Ends that are not written are not given here.

What was measured:
Trio DH2-PH2 = biological target: T1, Trio DH2-PH2 (Homo sapiens, UniProt O75962); experiment: Yeast two-hybrid screening for binding to Trio DH2-PH2; details: 3-AT 80-120 mM
T1 construct: made in house
Source text: The inventors next reasoned that peptides that would bind stronger to the GEF domain may also be better at inhibiting its activity. The inventors thus generated a library of peptide aptamers derived from TRIPα by random mutagenesis, which the inventors screened for GEF binding in a yeast two-hybrid assay. The inventors chose a system in which the threshold of interaction detection can be modulated by the concentration of the 3-aminotriazole (3-AT) drug (Sardet et al., 1995). Since Tgat is toxic in yeast, the inventors used Trio DH2-PH2 to screen this TRIP-like peptide library. […] These clones were then produced as GST fusions and analyzed for their inhibition of Trio DH2-PH2, using the [3H]-GDP dissociation assay.
An aptamer library derived from TRIPα was created by PCR-based random mutagenesis of TRIPα inserted into the yeast two-hybrid vector pPC86. Sequencing of a statistically representative number of clones yielded a mutation rate of ˜3 mutations/clone. 6×10^5 independent clones were screened for interactors, using Trio DH2-PH2 (in the pPC97 vector) as a bait, in the MAV 103 yeast strain, on high concentrations of 3-AT (3-amino-triazol, Sigma) (80-120 mM). Selected peptides were then produced as GST-fusions and analyzed for their inhibition of Trio DH2-PH2 using the [3H]-GDP dissociation assay.

[1] = test system: Dbl mediated RhoA activation; experiment: RhoA activation assay (GST-RBD pull-down) in NIH3T3 cells expressing Dbl; assay type: cell-based; details: GFP-tagged peptide
Description: FIG. 8 represents the effect of GFP-TRIPE32G on RhoA activation induced by Dbl (left panel) or Tgat (right panel) in NIH3T3 cells, assayed by GST-RBD pulldown. The levels of GTP-bound and total RhoA protein are shown in the upper two panels. Expression levels of Myc-Dbl and of all GFP-tagged proteins are shown in the lower two panels.
The level of GTP-bound RhoA was measured by a GST pulldown assay as described (Schmidt et al., 2002). Briefly, cell lysates were incubated with glutathione beads coated with the recombinant Rho-binding domain (RBD) of the RhoA specific effector Rhotekin (Cytoskeleton Inc.).

| Substance | interaction with Trio DH2-PH2 in yeast two-hybrid assay (Trio DH2-PH2) | inhibition of oncogenic Dbl mediated RhoA activation in intact cells [1] |
| --- | --- | --- |
| AREGADGAICGYNLATLVMLGPSERVFCPLCEPCSSDIYELM [TRIPα] | no interaction | – |
| GST-TRIPE32G (AREGADGAICGYNLATLVMLGPSERVFCPLCGPCSSDIYELM; cysteine pairing not given here; also: GST fusion) | – | not able to inhibit RhoA activation by Dbl |
